Source: PMC3328272, “HIV-1 Nef interaction influences the ATP-binding site of the Src-family kinase, Hck” (BMC Chemical Biology, 2012)

Assays:
mHck-TA-HART [1] = target: T1, mHck-TA-HART (Mus musculus, UniProt P08103, A89S/E88T/E93W/H91F/I90P/Q521E/Q522E/Q523I/R92P/T331A); assay: Z'-Lyte in vitro kinase assay, mHck-TA-HART alone; format: biochemical; conditions: read-out: Km, ATP
T1 construct: the N-terminal unique domain was replaced with a hexahistidine tag; hexahistidine (N); made in house; host or cells: Sf9 insect cells (baculovirus)
Description: (§1) Protein-tyrosine kinase assays were performed using the FRET-based Z'-Lyte kinase assay kit and Tyr-2 peptide substrate according to the manufacturer's instructions (Life Technologies) and our previous work. All assays were performed in quadruplicate in low-volume, non-binding 384-well plates (Corning). […] The Km for ATP was then calculated from a plot of ATP concentration against initial reaction velocity followed by non-linear regression analysis (GraphPad Prism). […] Development reagent was then added to the reaction for an additional 1 h at room temperature, followed by addition of the stop reagent. Fluorescence was assessed at an excitation wavelength of 400 nm; coumarin fluorescence and the fluorescein FRET signal were monitored at 445 and 520 nm, respectively. Reactions run in the absence of ATP served as the 0% phosphorylation control, whereas a stoichiometrically phosphorylated Tyr2 peptide was used as the 100% phosphorylation control. Raw fluorescence values were corrected for background, and reaction endpoints calculated as emission ratios of coumarin fluorescence divided by the fluorescein FRET signal. These ratios were normalized to the ratio obtained with the 100% phosphorylation control peptide. IC50 values were calculated using a sigmoidal curve fit using GraphPad Prism. […]

mHck + Nef-SF2 = target: T2, mHck + Nef-SF2 (Mus musculus, UniProt P08103, Q521E/Q522E/Q523I); assay: Z'-Lyte in vitro kinase assay, mHck + Nef-SF2; format: biochemical; conditions: mHck + Nef-SF2, Nef at 10-fold molar excess; read-out: Km, ATP
T2 construct: the N-terminal unique domain was replaced with a hexahistidine tag; hexahistidine (N); made in house; host or cells: Hck: Sf9 insect cells; Nef: E. coli
Description: as §1

mHck = target: T3, mHck (Mus musculus, UniProt P08103, Q521E/Q522E/Q523I); assay: Z'-Lyte in vitro kinase assay, mHck alone; format: biochemical; conditions: read-out: Km, ATP
T3 construct: the N-terminal unique domain was replaced with a hexahistidine tag; hexahistidine (N); made in house; host or cells: Sf9 insect cells (baculovirus)
Description: as §1

mHck-TA + Nef-SF2 = target: T4, mHck-TA + Nef-SF2 (Mus musculus, UniProt P08103, Q521E/Q522E/Q523I/T331A); assay: Z'-Lyte in vitro kinase assay, mHck-TA + Nef-SF2; format: biochemical; conditions: mHck-TA + Nef-SF2, Nef at 10-fold molar excess; read-out: Km, ATP
T4 construct: the N-terminal unique domain was replaced with a hexahistidine tag; hexahistidine (N); made in house; host or cells: Hck: Sf9 insect cells; Nef: E. coli
Description: as §1

mHck-HART = tested on: T5, mHck-HART; assay: Z'-Lyte in vitro kinase assay, mHck-HART alone; format: biochemical, mouse; conditions: read-out: Km, ATP
T5 construct: the N-terminal unique domain was replaced with a hexahistidine tag; hexahistidine (N); made in house; host or cells: Sf9 insect cells (baculovirus)
Description: as §1

[2] = target: mHck-TA-HART + Nef-Consensus (Mus musculus, UniProt P08103, A89S/E88T/E93W/H91F/I90P/Q521E/Q522E/Q523I/R92P/T331A); assay: Z'-Lyte in vitro kinase assay, mHck-TA-HART + Nef-Consensus; format: biochemical
Description: as §1

mHck-TA-HART + Nef-SF2 = target: T6, mHck-TA-HART + Nef-SF2 (Mus musculus, UniProt P08103, A89S/E88T/E93W/H91F/I90P/Q521E/Q522E/Q523I/R92P/T331A); format: biochemical
T6 construct: the N-terminal unique domain was replaced with a hexahistidine tag; hexahistidine (N); made in house; host or cells: Hck: Sf9 insect cells; Nef: E. coli
Description: Protein-tyrosine kinase assays were performed using the FRET-based Z'-Lyte kinase assay kit and Tyr-2 peptide substrate according to the manufacturer's instructions (Life Technologies) and our previous work. All assays were performed in quadruplicate in low-volume, non-binding 384-well plates (Corning). […] The Km for ATP was then calculated from a plot of ATP concentration against initial reaction velocity followed by non-linear regression analysis (GraphPad Prism). […] Development reagent was then added to the reaction for an additional 1 h at room temperature, followed by addition of the stop reagent. Fluorescence was assessed at an excitation wavelength of 400 nm; coumarin fluorescence and the fluorescein FRET signal were monitored at 445 and 520 nm, respectively. Reactions run in the absence of ATP served as the 0% phosphorylation control, whereas a stoichiometrically phosphorylated Tyr2 peptide was used as the 100% phosphorylation control. Raw fluorescence values were corrected for background, and reaction endpoints calculated as emission ratios of coumarin fluorescence divided by the fluorescein FRET signal. These ratios were normalized to the ratio obtained with the 100% phosphorylation control peptide. IC50 values were calculated using a sigmoidal curve fit using GraphPad Prism. Additional details of the Z'-Lyte assay principle and calculation of percent inhibition has been described elsewhere.

mHck-TA + Nef-Consensus = target: T7, mHck-TA + Nef-Consensus (Mus musculus, UniProt P08103, Q521E/Q522E/Q523I/T331A); assay: Z'-Lyte in vitro kinase assay, mHck-TA + Nef-Consensus; format: biochemical; conditions: Nef at 10-fold molar excess, read-out: Km, ATP
T7 construct: the N-terminal unique domain was replaced with a hexahistidine tag; hexahistidine (N); made in house; host or cells: Hck: Sf9 insect cells; Nef: E. coli
Description: as §1

mHck-HART + Nef-SF2 = tested on: T8, mHck-HART + Nef-SF2; assay: Z'-Lyte in vitro kinase assay, mHck-HART + Nef-SF2; format: biochemical, mouse; conditions: mHck-HART + Nef-SF2, Nef at 10-fold molar excess; read-out: Km, ATP
T8 construct: the N-terminal unique domain was replaced with a hexahistidine tag; hexahistidine (N); made in house; host or cells: Hck: Sf9 insect cells; Nef: E. coli
Description: as §1

mHck-TA [3] = target: T9, mHck-TA (Mus musculus, UniProt P08103, Q521E/Q522E/Q523I/T331A); assay: Z'-Lyte in vitro kinase assay, mHck-TA alone; format: biochemical; conditions: read-out: Km, ATP
T9 construct: the N-terminal unique domain was replaced with a hexahistidine tag; hexahistidine (N); made in house; host or cells: Sf9 insect cells (baculovirus)
Description: as §1

[4] = target: similarly modified Hck SH3 domain; conditions: ITC; read-out: interaction (KD) with a similarly modified Hck SH3 domain via ITC; cited from earlier work
mHck-TA [5] = target: T9, mHck-TA; assay: Nef-induced kinase activation over kinase:Nef ratios (Z'-Lyte); format: biochemical
Description: as §1, with “Reactions run in the absence of ATP served as the 0% phosphorylation control, whereas a stoichiometrically phosphorylated Tyr2 peptide was used as the 100% phosphorylation control.” left out, “These ratios were normalized to the ratio obtained with the 100% phosphorylation control peptide.” left out
(§2) To determine the impact of the SH3-HART modification in the context of near full-length Hck, we next introduced the HART coding sequence into mHck-TA. […] This observation fits with the smaller enhancement in SH3-HART binding to Nef-Consensus as determined by SPR. […]

mHck-TA-HART [6] = target: T1, mHck-TA-HART; assay: as above; format: biochemical
Description: as §1, with “Reactions run in the absence of ATP served as the 0% phosphorylation control, whereas a stoichiometrically phosphorylated Tyr2 peptide was used as the 100% phosphorylation control.” left out, “These ratios were normalized to the ratio obtained with the 100% phosphorylation control peptide.” left out
as §2

Mouse Hck HART = target: T10, Mouse Hck HART (Mus musculus, UniProt P08103, A89S/E88T/E93W/H91F/I90P/R92P); assay: Surface plasmon resonance (SPR), Nef binding to immobilized SH3 domain
T10 construct: made in house; host or cells: E. coli BL21(DE3)pLysS
Description: (§3) Recombinant Hck SH3 domain proteins were exchanged into HBS-EP buffer (10 mM HEPES, pH 7.4, 150 mM NaCl, 3 mM EDTA, 0.05% v/v P20 surfactant) and concentrated with an Amicon Ultra 15 ml 3 kDa molecular weight cutoff spin concentrator. Primary untagged Nef proteins were exchanged into HBS-EPD buffer (10 mM HEPES, pH 7.4, 150 mM NaCl, 3 mM EDTA, 0.05% v/v P20 surfactant, 1 mM DTT) and concentrated with an Amicon Ultra 15 ml 10 kDa molecular weight cutoff spin concentrator. SPR analysis was performed on a BIAcore 3000 instrument (GE Healthcare) using a four-channel CM5 biosensor chip with the Hck SH3 domains covalently attached as ligand via standard amine coupling chemistry. […] The initial binding reaction was followed by dissociation for 5 min, and the chip surface was regenerated using HBS-EPD buffer at a flow rate of 30 μl/min for 10 min. Binding curves recorded at each analyte concentration were assessed in triplicate, corrected for buffer effects, and fit to a 1:1 Langmuir binding model using the BIAevaluation 4.1 software suite (GE Healthcare).

Human Hck SH3 = target: T11, Human Hck SH3 (Homo sapiens, UniProt P08631); assay: as above; conditions: 1:1 Langmuir model
T11 construct: made in house; host or cells: E. coli BL21(DE3)pLysS
Description: as §3

Mouse Hck SH3 = target: T12, Mouse Hck SH3 (Mus musculus, UniProt P08103); assay: as above; conditions: 1:1 Langmuir model
T12 construct: made in house; host or cells: E. coli BL21(DE3)pLysS
Description: as §3

[7] = mHck-TA-HART with Nef-SF2 vs alone
[8] = HART vs wild-type mouse SH3 domain
[9] = Mouse Hck HART SH3 immobilized, 1:1 Langmuir model

T12 sequence (P08103 76-136 limits assumed): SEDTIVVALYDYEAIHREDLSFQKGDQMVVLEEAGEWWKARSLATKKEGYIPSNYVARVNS
T6 sequence (P08103 whole entry E88T/A89S/I90P/H91F/R92P/E93W/T331A/Q521E/Q522E/Q523I, looked up, the tested form may be a part): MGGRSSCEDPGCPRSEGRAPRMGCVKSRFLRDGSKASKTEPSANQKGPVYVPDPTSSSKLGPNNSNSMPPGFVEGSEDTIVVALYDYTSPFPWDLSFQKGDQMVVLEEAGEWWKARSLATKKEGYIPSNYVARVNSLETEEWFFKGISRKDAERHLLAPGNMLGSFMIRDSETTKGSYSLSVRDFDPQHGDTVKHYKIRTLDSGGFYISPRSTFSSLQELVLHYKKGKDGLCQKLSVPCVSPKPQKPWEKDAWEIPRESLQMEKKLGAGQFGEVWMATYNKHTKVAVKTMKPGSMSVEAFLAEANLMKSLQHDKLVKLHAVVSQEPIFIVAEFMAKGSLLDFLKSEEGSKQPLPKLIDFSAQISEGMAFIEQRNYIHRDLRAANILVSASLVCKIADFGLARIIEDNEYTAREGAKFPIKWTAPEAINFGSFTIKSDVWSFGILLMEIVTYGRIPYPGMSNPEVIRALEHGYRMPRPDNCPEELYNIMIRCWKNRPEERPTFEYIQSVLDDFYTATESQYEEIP
T10 sequence (P08103 76-136 E88T/A89S/I90P/H91F/R92P/E93W limits assumed): as the sequence (P08103 76-136 limits assumed) above, with E13T, A14S, I15P, H16F, R17P, E18W counted along it
T11 sequence (P08631 78-138 limits assumed): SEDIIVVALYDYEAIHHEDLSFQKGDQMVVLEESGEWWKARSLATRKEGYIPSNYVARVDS
T1 sequence (P08103 76-524 E88T/A89S/I90P/H91F/R92P/E93W/T331A/Q521E/Q522E/Q523I): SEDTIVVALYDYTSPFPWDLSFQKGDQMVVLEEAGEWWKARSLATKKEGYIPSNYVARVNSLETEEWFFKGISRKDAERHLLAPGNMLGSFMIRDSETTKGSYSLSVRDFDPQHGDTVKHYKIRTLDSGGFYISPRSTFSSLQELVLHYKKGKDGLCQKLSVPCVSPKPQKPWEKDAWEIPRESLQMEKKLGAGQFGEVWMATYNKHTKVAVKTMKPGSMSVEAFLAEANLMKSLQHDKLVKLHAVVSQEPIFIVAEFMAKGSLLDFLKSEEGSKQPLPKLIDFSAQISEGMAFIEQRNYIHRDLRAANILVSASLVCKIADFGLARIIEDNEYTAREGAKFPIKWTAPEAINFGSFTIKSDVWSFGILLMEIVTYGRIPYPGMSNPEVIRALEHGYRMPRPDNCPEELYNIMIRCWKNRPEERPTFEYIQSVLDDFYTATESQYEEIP
Sequence of mHck-TA-HART + Nef-Consensus (P08103 76-524 E88T/A89S/I90P/H91F/R92P/E93W/T331A/Q521E/Q522E/Q523I): as above
T9 sequence (P08103 76-524 T331A/Q521E/Q522E/Q523I limits assumed): as the sequence (P08103 76-524 E88T/A89S/I90P/H91F/R92P/E93W/T331A/Q521E/Q522E/Q523I) above, with T13E, S14A, P15I, F16H, P17R, W18E counted along it
T2 sequence (P08103 76-524 Q521E/Q522E/Q523I): as the sequence (P08103 76-524 E88T/A89S/I90P/H91F/R92P/E93W/T331A/Q521E/Q522E/Q523I) above, with T13E, S14A, P15I, F16H, P17R, W18E, A256T counted along it
T3 sequence (P08103 76-524 Q521E/Q522E/Q523I): as the sequence (P08103 76-524 E88T/A89S/I90P/H91F/R92P/E93W/T331A/Q521E/Q522E/Q523I) above, with T13E, S14A, P15I, F16H, P17R, W18E, A256T counted along it
T7 sequence (P08103 76-524 T331A/Q521E/Q522E/Q523I limits assumed): as the sequence (P08103 76-524 E88T/A89S/I90P/H91F/R92P/E93W/T331A/Q521E/Q522E/Q523I) above, with T13E, S14A, P15I, F16H, P17R, W18E counted along it
T4 sequence (P08103 76-524 T331A/Q521E/Q522E/Q523I limits assumed): as the sequence (P08103 76-524 E88T/A89S/I90P/H91F/R92P/E93W/T331A/Q521E/Q522E/Q523I) above, with T13E, S14A, P15I, F16H, P17R, W18E counted along it

Compound: Nc1ncnc2c1ncn2[C@@H]1O[C@H](COP(=O)(O)OP(=O)(O)OP(=O)(O)O)[C@@H](O)[C@H]1O [ATP]
- Km (mHck-TA-HART [1]): 181 ± 28.7 µM
- Km (mHck + Nef-SF2): 14.8 ± 1.4 µM
- Km (mHck): 12.1 ± 2 µM
- Km (mHck-TA + Nef-SF2): 68 ± 10.7 µM
- Km (mHck-HART): 105 ± 29 µM
- Km ([2]; mHck-TA-HART + Nef-Consensus, Nef at 10-fold molar excess, read-out: Km, ATP): 76 ± 23.1 µM
- reduction of the Km for ATP in the presence of Nef ([2]; mHck-TA-HART with Nef-Consensus vs alone): ~ 2.5 fold
- Km (mHck-TA-HART + Nef-SF2; mHck-TA-HART + Nef-SF2, Nef at 10-fold molar excess, read-out: Km, ATP): 69 ± 17.6 µM
- reduction of the Km for ATP in the presence of Nef (mHck-TA-HART + Nef-SF2; [7]): ~ 2.5 fold
- Km (mHck-TA + Nef-Consensus): 84 ± 3.5 µM
- Km (mHck-HART + Nef-SF2): 49.3 ± 5.8 µM
- Km (mHck-TA [3]): 62 ± 12.6 µM

Compound: CC(C)(C)n1nc(-c2cccc3ccccc23)c2c(N)ncnc21 [NaPP1, reference compound]
- increase in sensitivity to inhibition by NaPP1 in the presence of Nef (mHck-TA-HART + Nef-SF2; [7]): more than three-fold

Compound: Nef-SF2: recombinant HIV-1 Nef protein, B-clade allele SF2, expressed in E. coli
- Kd [4]: 0.012 µM
- excess of Nef required for full activation (mHck-TA [5]): 5 fold
- kinase:Nef ratio at maximal activation (mHck-TA-HART [6]): 1 to 1
- enhancement of affinity by introduction of the HART sequence (Mouse Hck HART; [8]): 13 fold
- increase in the association rate constant with SH3-HART (Mouse Hck HART; [8]): 2.5 fold
- change in the dissociation rate constant with SH3-HART (Mouse Hck HART; HART vs wild-type mouse SH3 domain, decrease for Nef-SF2, essentially unchanged for Nef-Consensus): ~5 fold
- Kd (Mouse Hck HART; [9]): 0.01 µM
- ka (Mouse Hck HART; [9]): 14.20 ± 1.40 M^-1s^-1 × 10^5
- kd (Mouse Hck HART; [9]): 1.43 ± 0.01 s^-1 × 10^-2
- Kd (Human Hck SH3): 0.07 ± 0.01 µM
- ka (Human Hck SH3): 1.60 ± 0.06 M^-1s^-1 × 10^5
- kd (Human Hck SH3): 1.18 ± 0.04 s^-1 × 10^-2
- Kd (Mouse Hck SH3): 0.13 ± 0.03 µM
- ka (Mouse Hck SH3): 5.54 ± 1.77 M^-1s^-1 × 10^5
- kd (Mouse Hck SH3): 7.00 ± 0.36 s^-1 × 10^-2
